Results as given in patent publication US20180369327A1, “METHOD FOR TREATING OR PREVENTING OSTEOARTHRITIS” (Dong-A University Research Foundation for Industry-Academy …, priority 2017, published 2018).

Assays:
[1] = test system: PKCK2; test: Immunohistochemistry of cartilage, PKCK2-positive cells, HFD-induced OA mouse model; assay type: in vivo; conditions: mice fed HFD, cilostazol 30 mg/kg/day orally 10 weeks; n=10
Procedure: (§1) HFD-induced OA mouse model. Sixty mice were fed a normal chow diet for one week and then mice were fed an HFD or a SD for 25 weeks. Ten mice from each diet were used histologically examine the effect of high fat diet. Forty mice were used to examine the effect of cilostazol. Mice fed a SD or HFD for 15 weeks were orally administered cilostazol at concentrations of 30 mg/kg/day for additional 10 weeks. SD+vehicle mice (n=10) were fed a SD and received DMSO. SD+cilostazol mice (n=10) were fed a SD and received cilostazol. HFD+vehicle mice (n=10) were fed a HFD and received DMSO. HFD+cilostazol mice (n=10) were fed a HFD and received cilostazol. Immunohistochemical observation and analysis. Tissue sections were incubated in 1:70-diluted goat serum solution for 30 minutes at room temperature, and then for 2 hours with 1:100-diluted primary antibody at room temperature. Next, sections were incubated with secondary antibody for 1 hour at 37° C. and developed using ABC complex. […] Histological images were observed and analyzed using a Aperio ScanScope® CS system. Total numbers of positive for […]27 and STAMP2 in four fields per animal were counted by an observer blinded to the experiment and the percentage of positive cells were calculated.

[2] = test system: rat articular chondrocytes; test: DNA hypoploidy / cell cycle analysis by flow cytometry (apoptosis); assay type: cell-based; conditions: 30 μM cilostazol, 1.5 mM oleate; n=4
Procedure: Rat articular chondrocytes for primary culture were isolated from knee joint cartilage slices by enzymatic digestion for 1 h with 0.2% type II collagenase (381 units/mg) in DMEM. After the isolated cells were collected by brief centrifugation, they were resuspended in DMEM supplemented with 10% (v/v) FBS, […] streptomycin and 50 units/ml penicillin (Gibco). The cells were plated on culture dishes at a density of 5×10^4 cells/cm^2. The medium was replaced every 2 days, and they reached confluence after approximately 5 days in culture. In each experiment, the cells from three animals were pooled and analyzed three times. FFA were dissolved in absolute ethanol at a concentration of 500 mM and diluted to final concentrations of FFAs with the appropriate concentration of 1% (w/v) FFA-free BSA. Controls were incubated with equal concentrations of FFA-free BSA containing ethanol. […] Cells were washed twice with PBS, and fixed with cold 70% ethanol at 4° C. overnight. The fixed cells were pelleted and ethanol was removed by washing twice with PBS containing 1% bovine serum albumin (BSA). The cells were resuspended in 1 ml of PBS containing 11 Kunitz U/ml RNase A, incubated at 4° C. for 30 min and washed once with BSAPBS. Cells were resuspended in PI solution (50 μg/ml) and incubated at 37° C. for 30 min in dark. […]

[3] = test system: rat articular chondrocytes; test: Cell viability assay (automated trypan blue exclusion); assay type: cell-based; conditions: n=4
Procedure: Rat articular chondrocytes for primary culture were isolated from knee joint cartilage slices by enzymatic digestion for 1 h with 0.2% type II collagenase (381 units/mg) in DMEM. After the isolated cells were collected by brief centrifugation, they were resuspended in DMEM supplemented with 10% (v/v) FBS, […] streptomycin and 50 units/ml penicillin (Gibco). The cells were plated on culture dishes at a density of 5×10^4 cells/cm^2. The medium was replaced every 2 days, and they reached confluence after approximately 5 days in culture. In each experiment, the cells from three animals were pooled and analyzed three times.
FFA were dissolved in absolute ethanol at a concentration of 500 mM and diluted to final concentrations of FFAs with the appropriate concentration of 1% (w/v) FFA-free BSA. Controls were incubated with equal concentrations of FFA-free BSA containing ethanol. To examine the effect of several chemicals, cells were pretreated with 150 μg/mL DRB or 30 μM cilostazol for 24 h or 25 ng/ml TNF-α for 3 h before FFA treatment.
siRNA transfection or combination treatment with FFAs. Transfection of siRNA was performed with the use of siPORT Amine and Opti-MEM media. Cells grown to a confluence of 40% to 50% in six-well plates were transfected with 100 nM final siRNA concentration per well. Transfection mixture was added to each well, and incubation occurred for 4 h. Then 2 ml of growth medium was added, and cells were incubated for another 20 h. After siRNA transfection medium was removed, each well was washed in PBS solution. Cells were treated with FFAs for 24 hours.
Recombinant adenoviral STAMP2 was prepared as described previously34. Cells (1×10^7) were infected with recombinant adenoviral STAMP2 at multiplicities of infection (MOI) of 500, 1000 and 1500 to the medium.
An automated trypan blue exclusion assay was undertaken. Total cells and trypan bluestained (i.e., nonviable) cells were counted, and the percentage of nonviable cells was calculated using the Vi-Cell cell counter (Beckman Coulter, Miami, Fla., USA).

[4] = test system: FSP27; test: Immunohistochemistry of cartilage, FSP27-positive cells, HFD-induced OA mouse model; assay type: in vivo; design: reference not given here; conditions: mice fed HFD, cilostazol 30 mg/kg/day orally 10 weeks; n=10
Procedure: as §1

O=C1CCc2cc(OCCCCc3nnnn3C3CCCCC3)ccc2N1 [cilostazol]
population of PKCK2-positive cells [1]: significantly increased
effect on oleate-induced apoptosis (histograms) [2]: prevented 1.5 mM oleate-induced apoptosis
influence on lipotoxicity of oleate/palmitate combination (viability) ([3]; 0.4 mM oleate with 0.6 or 1.6 mM palmitate): reciprocal influences on lipotoxicity
effect on oleate-induced cell death (viability) ([3]; cilostazol pre-treatment, 1.5 mM oleate): prevented 1.5 mM oleate-induced cell death
population of FSP27-positive cells [4]: significantly increased
